In assay [1] the test system is RKO (RKOp27) human colon adenocarcinoma cells. Put plainly: Alamar Blue cell viability assay, anti-proliferative/cytotoxic activity on proliferating RKO subclones. In kind it is cell-based. The note with it: RKOp27, 72 h, RKO p27 uninduced (proliferating) cells, value = class bound given in Table A, read-out: −logIC50 RKO p27 uninduced (proliferating) (converted). The method in brief: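 Alamar Blue fluorescence (ex 544, em 590 nm) after 72 h compound exposure at 37 °C, 5% CO2, normalised to untreated controls set at 100%. Cells were seeded at 5000 per well and dosed 24 h later with serial semi-logarithmic dilutions in 10% FCS DMEM, four replicates each. −log IC50 [mol/l] was derived from concentration-effect curves.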

The subject of assay [2] is subclones of RKO colon adenocarcinoma cells (RKOp27 or RKOp21) arrested by Ponasterone A. The assay can be described thus: Alamar Blue cell viability assay, cell cycle specific mode of action: cells arrested by ectopic p27Kip1 induced by Ponasterone A versus proliferating cells. The note with it: Homo sapiens, RKO p27 induced (arrested) cells, 10 μM Ponasterone A, 72 hours, value = class bound given in Table A, read-out: −logIC50 RKO p27 induced (arrested) (converted). It is filed as cell-based. The method in brief: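 Viability of proliferating versus Ponasterone A (10 μM)-arrested RKOp27/RKOp21 cells after 72 h compound exposure at 37° C, in quadruplicate. Read-out is Alamar Blue fluorescence (544/590 nm) normalised to untreated cells = 100%; values as −log IC50.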

Consider `CC(CC(=O)Nc1sc2c(c1C#N)CCC(COC(=O)NCC1CCOCC1)C2)c1ccccc1` (centres unmarked) [Example 308, (Tetrahydro-pyran-4-ylmethyl)-carbamic acid 3-cyano-2-(3-phenyl-butanoylamino)-4,5,6,7-tetrahydro-benzo[b]thiophen-6-ylmethyl ester], for which the IC50 in assay [1] was no more than 501 nM; in assay [2] it was no less than 50100 nM.
Taken in the same sequence, the figures for `CC(CC(=O)Nc1sc2c(c1C#N)CCC(COC(=O)NC1CCOCC1)C2)c1ccccc1` (centres unmarked) [Example 309, (Tetrahydro-pyran-4-yl)-carbamic acid 3-cyano-2-(3-phenyl-butanoylamino)-4,5,6,7-tetrahydro-benzo[b]thiophen-6-ylmethyl ester] were no more than 501 nM and no less than 50100 nM.
For the compound `CC(CC(=O)Nc1sc2c(c1C#N)CCC(COC(=O)NCCn1ccnc1)C2)c1ccccc1` (centres unmarked) [Example 310, (2-Imidazol-1-yl-ethyl)-carbamic acid 3-cyano-2-(3-phenyl-butanoyl-amino)-4,5,6,7-tetrahydro-benzo[b]thiophen-6-ylmethyl ester], the IC50 in assay [1] was 501 to 2000 nM; in assay [2], no less than 10000 nM.
For `CC(CC(=O)Nc1sc2c(c1C#N)CCC(COC(=O)NCc1nccn1C)C2)c1ccccc1` (centres unmarked) [Example 311, (1-Methyl-1H-imidazol-2-ylmethyl)-carbamic acid 3-cyano-2-(3-phenyl-butanoylamino)-4,5,6,7-tetrahydro-benzo[b] thiophen-6-ylmethyl ester], the IC50 in assay [1] was no more than 501 nM; in assay [2] it was no less than 10000 nM.
In the case of `CC(CC(=O)Nc1sc2c(c1C#N)CCC(COC(=O)NCc1cncn1C)C2)c1ccccc1` (centres unmarked) [Example 312, (3-Methyl-3H-imidazol-4-ylmethyl)-carbamic acid 3-cyano-2-(3-phenyl-butanoylamino)-4,5,6,7-tetrahydro-benzo[b] thiophen-6-ylmethyl ester], the IC50 in assay [1] was no more than 501 nM; in assay [2] it was no less than 10000 nM.
The corresponding values for `CC(CC(=O)Nc1sc2c(c1C#N)CCC(COC(=O)NCc1ccnn1C)C2)c1ccccc1` (centres unmarked) [Example 313, (2-Methyl-2H-pyrazol-3-ylmethyl)-carbamic acid 3-cyano-2-(3-phenyl-butanoylamino)-4,5,6,7-tetrahydro-benzo[b] thiophen-6-ylmethyl ester] are no more than 501 nM and no less than 50100 nM.
Regarding `Cc1cc(CNC(=O)OCC2CCc3c(sc(NC(=O)CC(C)c4ccccc4)c3C#N)C2)no1` (centres unmarked) [Example 314, (5-Methyl-isoxazol-3-ylmethyl)-carbamic acid 3-cyano-2-(3-phenyl-butanoylamino)-4,5,6,7-tetrahydro-benzo[b] thiophen-6-ylmethyl ester], the IC50 in assay [1] is no more than 501 nM; in assay [2] it was no less than 50100 nM.
The corresponding values for `CC(CC(=O)Nc1sc2c(c1C#N)CCC(COC(=O)NCC1CCCO1)C2)c1ccccc1` (centres unmarked) [Example 315, (Tetrahydrofuran-2-ylmethyl)-carbamic acid 3-cyano-2-(3-phenyl-butanoylamino)-4,5,6,7-tetrahydro-benzo[b]thiophen-6-ylmethyl ester] are 501 to 2000 nM and no less than 50100 nM.
The corresponding values for `CC(CC(=O)Nc1sc2c(c1C#N)CCC(COC(=O)NC(C)c1cccnc1)C2)c1ccccc1` (centres unmarked) [Example 316, (1-Pyridin-3-yl-ethyl)-carbamic acid 3-cyano-2-(3-phenyl-butanoylamino)-4,5,6,7-tetrahydro-benzo[b] thiophen-6-ylmethyl ester] are no more than 501 nM and no less than 10000 nM.
Consider `Cc1n[nH]cc1CNC(=O)OCC1CCc2c(sc(NC(=O)CC(C)c3ccccc3)c2C#N)C1` (centres unmarked) [Example 317, (3-Methyl-1H-pyrazol-4-ylmethyl)-carbamic acid 3-cyano-2-(3-phenyl-butanoylamino)-4,5,6,7-tetrahydro-benzo[b] thiophen-6-ylmethyl ester], for which the IC50 was no more than 501 nM in assay [1] and no less than 10000 nM in assay [2].

Source of the values: patent US20110044938A1 (NYCOMED GMBH, priority 2006, published 2011).
